4 molecules from ChEMBL document CHEMBL3886147 (2015) can be followed below.

Each structure is given as a SMILES string. pIC50: −log10 of the molar value. “And” between values parts separate entries of the source, which are not always exact repeats. Identical values can stand only once.

One experiment addresses Beta-lactamase (Escherichia coli K-12, UniProt P00811). Nature of the experiment: (§1) Assays are performed with beta -lactamases expressed in the pET system (Novagen, San Diego, Calif.) without signal peptides. They contain an N-terminal hexa-Histidine tag that is used for purification on Ni-NTA (Qiagen, Hilden, Germany). The compounds are prepared as 50 mM stocks in DMSO and diluted into buffer P1 (50 mM phosphate, pH 7) to a final concentration of 10% DMSO. All further dilutions are done in P2 (P1 with 10% DMSO). Enzyme and compound dilutions are pre-incubated for 10 min at 37 C. and the reaction is started with the addition of pre-warmed (37 C.) nitrocefin at a final concentration of […]. The change in absorption at 490 nm is followed at 37 C. for 10 min with 30 s intervals.

A further experiment has as its target Beta-lactamase TEM (Bacteria, UniProt P62593). The experiment is described as §1.

Chain of Beta-lactamase (P00811 whole entry): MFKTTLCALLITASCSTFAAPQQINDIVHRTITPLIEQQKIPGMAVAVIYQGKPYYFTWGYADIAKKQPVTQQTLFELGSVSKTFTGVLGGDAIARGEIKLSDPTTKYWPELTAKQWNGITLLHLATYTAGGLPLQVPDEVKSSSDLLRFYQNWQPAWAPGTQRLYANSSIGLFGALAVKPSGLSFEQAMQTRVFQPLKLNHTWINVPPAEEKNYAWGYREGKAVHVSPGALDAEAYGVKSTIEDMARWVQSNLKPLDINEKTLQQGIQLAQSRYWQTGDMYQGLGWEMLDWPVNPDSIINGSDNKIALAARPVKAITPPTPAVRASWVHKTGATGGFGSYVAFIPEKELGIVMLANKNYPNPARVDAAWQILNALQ
Chain of Beta-lactamase TEM (P62593 whole entry): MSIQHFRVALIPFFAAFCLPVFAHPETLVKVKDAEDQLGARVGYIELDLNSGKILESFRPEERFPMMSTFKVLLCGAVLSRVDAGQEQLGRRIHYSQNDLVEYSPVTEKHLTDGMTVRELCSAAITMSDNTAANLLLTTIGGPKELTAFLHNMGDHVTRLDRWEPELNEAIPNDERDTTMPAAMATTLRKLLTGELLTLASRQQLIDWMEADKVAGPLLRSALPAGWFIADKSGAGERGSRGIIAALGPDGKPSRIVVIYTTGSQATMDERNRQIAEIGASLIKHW

`[N-]=[N+]=NCC1C/C(=C2\O[C@@H]3CC(=O)N3C2C(=O)OCc2ccccc2)C(=O)O1` (stereo not given in full) had a pIC50 at Beta-lactamase of 6.52.
On the same count and under the same terms, to `CC1C/C(=C2\O[C@@H]3CC(=O)N3C2C(=O)OCc2ccccc2)C(=O)O1` (single isomer, unassigned) belongs 5.97 and 6.52.
With `COC(=O)C1/C(=C2/CC(CI)OC2=O)O[C@@H]2CC(=O)N12` (stereo not given in full), the pIC50 against Beta-lactamase was 6.90; against Beta-lactamase TEM, 8.46.
On Beta-lactamase, `CC1CC(=C2O[C@@H]3CC(=O)N3C2C(=O)O)C(=O)O1` (single isomer, unassigned) had a pIC50 of 5.22.
